According to patent publication US20220033784A1 (priority 2020, published 2022):
Residue numbers refer to the chain shown, from its start. Names may count otherwise.

Assays:
[1] = target: T1, mouse intermediate-affinity IL-2R (IL-2Rβ + IL-2Rγ) on murine splenocytes (CD8+ T cells and NK cells) (mouse) (UniProt P16297)
T1 sequence 1: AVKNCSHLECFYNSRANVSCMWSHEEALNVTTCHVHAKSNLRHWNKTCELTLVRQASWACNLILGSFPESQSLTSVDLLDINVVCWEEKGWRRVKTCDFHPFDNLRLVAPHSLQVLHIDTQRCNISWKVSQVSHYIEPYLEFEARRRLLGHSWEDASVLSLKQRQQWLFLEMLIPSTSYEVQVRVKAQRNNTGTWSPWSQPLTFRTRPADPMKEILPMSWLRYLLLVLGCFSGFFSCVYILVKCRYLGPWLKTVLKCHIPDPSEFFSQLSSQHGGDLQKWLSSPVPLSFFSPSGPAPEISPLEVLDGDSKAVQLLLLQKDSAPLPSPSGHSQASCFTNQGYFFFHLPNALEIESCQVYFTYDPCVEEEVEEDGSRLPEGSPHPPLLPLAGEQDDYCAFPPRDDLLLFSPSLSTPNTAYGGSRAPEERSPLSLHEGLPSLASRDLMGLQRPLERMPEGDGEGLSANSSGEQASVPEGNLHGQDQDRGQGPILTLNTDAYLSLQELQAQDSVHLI
T1 sequence 2: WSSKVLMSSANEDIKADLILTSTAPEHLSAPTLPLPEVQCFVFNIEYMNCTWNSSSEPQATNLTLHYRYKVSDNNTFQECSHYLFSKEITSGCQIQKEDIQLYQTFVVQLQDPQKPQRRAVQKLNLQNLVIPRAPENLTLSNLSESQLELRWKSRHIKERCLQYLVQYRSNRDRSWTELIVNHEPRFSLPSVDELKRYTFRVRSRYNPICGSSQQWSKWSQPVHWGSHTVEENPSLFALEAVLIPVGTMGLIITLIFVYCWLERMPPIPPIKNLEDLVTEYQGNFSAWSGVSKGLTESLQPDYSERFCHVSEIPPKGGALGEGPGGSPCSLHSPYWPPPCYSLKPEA

[2] = system: Treg cells; test: pSTAT5 flow cytometry in hPBMCs: Treg cells; assay type: cell-based, human; details: pSTAT5 MFI in hPBMCs, 20 minutes at 37° C.; read-out: EC50 Treg cell
Protocol: (§1) In this experiment, the ability of the IL-2 variants to activate CD8 T cells, NK cells, and Treg cells was measured by monitoring relative changes in pSTAT5 in response to treatment of the cells with the IL-2 variants. The IL-2 variants tested in this experiment were each fused to a human IgG Fc domain as described in Example 15. […]; Blood from healthy volunteers was taken and hPBMCs were isolated using a ficoll-paque (GE Healthcare) gradient, washed with PBS to remove platelets, and cleared of red blood cells using ACK lysis buffer (Gibco). Cells were then plated at 1*10e6 cells/well in 90 uL serum-free RPMI 1640 media (Gibco) and allowed to rest for 2-4 hours at 37° C. After resting, cells were treated the IL-2 molecules listed above (10 uL), at the indicated concentrations for 20 minutes at 37° C., and 25 uL 20% PFA was immediately added with gentle pipetting. Cells were then pelleted by centrifugation and aspirated (400 RCF, 7 minutes).
(§2) Phosflow Perm Buffer III (BD Biosciences) was added (200 uL), and the cells were mixed gently by pipetting up and down once to prevent clumping. Cells were then washed twice with 200 uL FACS buffer followed by pelleting by centrifugation (400 RCF, 7 minutes). Cells were in resuspended in 200 uL FACS buffer and incubated with the antibodies in Table D and Table E per standard procedure then suspended in 200 uL FACS buffer for FACS analysis. Data was analyzed using FlowJo v10 software.

[3] = system: NK cells; test: pSTAT5 flow cytometry in hPBMCs: NK cells; assay type: cell-based, human
Protocol: as §1, §2

[4] = system: CD8 T cells; test: In vivo expansion of CD8 T cells (spleen immunophenotyping); design: species or system mice; details: 0.5, 1, or 2 mg/kg daily for 4 days SC; spleens day 3
Protocol: (§3) Mice were randomized into groups to receive one of the molecules listed above or PBS control. The treatment groups were as follows: PBS; Fc-IL2; Fc-IL2v; […]; Immunophenotyping was conducted on day 3 after the first treatment (day 0) by collecting spleens from each group.

[5] = system: CD8 T cells; test: pSTAT5 flow cytometry in hPBMCs: CD8 T cells; assay type: cell-based, human
Protocol: as §1, §2

[6] = system: HH cells (IL-2 CD122/CD132 (β/γ) receptor complex); test: pSTAT5 ELISA in HH cells; assay type: cell-based
Protocol: (§4) The ability of the IL-2 variants to activate HH cells and iTregs was measured by monitoring relative changes in phosphorylated STAT5 (pSTAT5) in response to treatment of the cells with the IL-2 variants. pSTAT5 is known to be a downstream consequence of IL-2 signaling. HH T cells (ATCC CRL-2105) are a line of T cells that lack the alpha chain of the IL-2 receptor complex, but that contain the beta and gamma chains of the IL-2 receptor complex. iTreg cells were prepared from Fresh Leuko Paks obtained from […] Technologies (CAT #70500.1, Donor #D001003551).
(§5) For IL-2 activation, the HH cells and iTreg cells were plated at 2*10e6 cells/well in 50 ul serum-free RPMI 1640 media (Gibco), and allowed to rest at 37° C. After resting, cells were treated the IL-2 molecules listed above, and cells were then pelleted by centrifugation.
(§6) Following treatment with the IL-2 molecules, cell induction status was evaluated by the InstantOne ELISA pSTAT5 detection kit (Invitrogen).

[7] = system: Treg cells; test: In vivo expansion of Treg cells (spleen immunophenotyping); design: species or system mice; details: 0.5, 1, or 2 mg/kg daily for 4 days SC; spleens day 3
Protocol: as §3

[8] = system: B16F10 cells; test: Tolerability and tumor growth inhibition in B16F10-bearing mice (Example 21); assay type: in vivo, mouse (C57/BL6)
Source text: On day 0 of the experiment, female C57/BL6 mice were subcutaneously implanted in the upper thigh with approximately 500,000 B16F10 cells, which had been freshly thawed from a single, low-passage vial (of 1*10^7 cells) and cultured for the minimum time required to establish sufficient cells for implantation.
On day 5 of the experiment, mice were randomized into groups to receive one of the molecules listed above or control. […] Tumor volumes, body weight, and animal survival were tracked throughout the course of the experiment. Animals were sacrificed once tumors reached approximately 2000 mm^3 or 2 weeks post treatment.

[9] = system: iTreg cells (IL-2 CD25/CD122/CD132 (α/β/γ) receptor complex); test: pSTAT5 ELISA in iTreg cells; assay type: cell-based; details: pSTAT5 level 50% of maximum, InstantOne ELISA; read-out: EC50 iTreg cell
Protocol: as §4, §5, §6

[10] = system: NK cells; test: In vivo expansion of NK cells (spleen immunophenotyping); design: species or system mice; details: 0.5, 1, or 2 mg/kg daily for 4 days SC; spleens day 3
Protocol: as §3

[11] = system: Treg cells (CD3+CD4+CD25+ Foxp3+); assay type: cell-based, mouse (C57BL/6); details: protein from supernatants of virus-infected HeLa cells, 15 minutes incubation
[12] = target: T2, human intermediate-affinity IL-2 receptor complex, IL-2 CD122/CD132 (β/γ), on cells (human, UniProt P14784 27-551; P31785 23-369); test: cell-based or functional assay
T2 sequence (looked up) 1: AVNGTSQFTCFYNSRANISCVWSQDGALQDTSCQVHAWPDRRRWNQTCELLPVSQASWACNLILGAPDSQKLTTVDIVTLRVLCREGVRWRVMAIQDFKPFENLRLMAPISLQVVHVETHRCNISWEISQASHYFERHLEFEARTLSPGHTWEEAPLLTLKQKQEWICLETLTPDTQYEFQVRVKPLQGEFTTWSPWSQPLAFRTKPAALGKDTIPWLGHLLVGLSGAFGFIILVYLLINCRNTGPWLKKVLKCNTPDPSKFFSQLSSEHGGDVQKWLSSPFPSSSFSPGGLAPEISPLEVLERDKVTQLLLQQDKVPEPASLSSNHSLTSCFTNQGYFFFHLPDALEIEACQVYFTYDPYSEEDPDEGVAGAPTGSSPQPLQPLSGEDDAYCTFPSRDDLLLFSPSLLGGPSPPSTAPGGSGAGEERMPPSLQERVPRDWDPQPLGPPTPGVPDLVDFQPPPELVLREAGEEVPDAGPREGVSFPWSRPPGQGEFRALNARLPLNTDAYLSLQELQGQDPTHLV
T2 sequence (looked up) 2: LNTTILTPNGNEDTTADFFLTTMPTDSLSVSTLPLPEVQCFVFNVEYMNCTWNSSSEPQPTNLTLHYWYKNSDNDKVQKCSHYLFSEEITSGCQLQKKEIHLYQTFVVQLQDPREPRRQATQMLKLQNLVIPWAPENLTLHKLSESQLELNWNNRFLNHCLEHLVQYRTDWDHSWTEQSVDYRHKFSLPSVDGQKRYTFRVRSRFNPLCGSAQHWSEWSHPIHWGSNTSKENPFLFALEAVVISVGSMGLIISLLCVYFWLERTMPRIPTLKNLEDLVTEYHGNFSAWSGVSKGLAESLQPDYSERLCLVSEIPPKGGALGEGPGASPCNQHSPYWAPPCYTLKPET

[13] = target: T3, human high-affinity IL-2 receptor complex, IL-2 CD25/CD122/CD132 (α/β/γ), on cells (human, UniProt P01589 22-272; P14784 27-551; P31785 23-369); test: cell-based or functional assay
T3 sequence (looked up) 1: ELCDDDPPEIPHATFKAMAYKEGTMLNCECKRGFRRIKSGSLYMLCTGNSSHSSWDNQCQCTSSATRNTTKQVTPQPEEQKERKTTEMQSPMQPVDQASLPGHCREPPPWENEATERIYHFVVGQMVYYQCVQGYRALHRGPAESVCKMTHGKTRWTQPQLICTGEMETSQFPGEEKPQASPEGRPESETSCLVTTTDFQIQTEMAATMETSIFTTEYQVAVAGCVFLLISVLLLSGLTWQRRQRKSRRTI
T3 sequence (looked up) 2: T2 sequence (looked up) 1
T3 sequence (looked up) 3: T2 sequence (looked up) 2

human IL-2 glycovariant 2 hIL-2gv2 (K43N, Y45T, L72N, Q74T), secreted by virus-infected HeLa cells (from UniProt P60568 21-153) (ligand)
EC50 (read off the curve), pSTAT5 MFI, murine splenocyte NK cells [1]: 20 ng/mL

human IL-2 glycovariant hIL-2gv1 (R38N, L40T, K43N, Y45T), secreted by virus-infected HeLa cells (from UniProt P60568 21-153) (ligand)
EC50 (read off the curve), pSTAT5 MFI, murine splenocyte NK cells [1]: 20 ng/mL

Fc-IL2-K43N:Y45T
EC50 [2]: 24.2 nM | Selectivity NK/Treg ([3]; larger numbers = greater selectivity for NK cells over Treg cells): 3.8 | EC50 ([3]; pSTAT5 MFI in hPBMCs, 20 minutes at 37° C., read-out: EC50 NK cell): 6.37 nM | expansion of CD8 T cells in vivo [4]: promoted the expansion | Selectivity CD8/Treg ([5]; larger numbers = greater selectivity for CD8 T cells over Treg cells): 0.42 | EC50 ([5]; pSTAT5 MFI in hPBMCs, 20 minutes at 37° C., read-out: EC50 CD8 T cell): 57.6 nM | Selectivity HH/iTreg ([6]; higher value = greater selectivity for HH cells): 3.86 × 10^−3 | EC50 ([6]; pSTAT5 level 50% of maximum, InstantOne ELISA, read-out: EC50 HH T cell): 166 nM | proliferation of Treg cells in vivo [7]: modest increase in Treg proliferation | surviving mice ([8]; 1 mg/kg SC on days 5, 6, 7, 8, groups of 15, day 12 post first treatment): 7/15 | tolerability in mice compared with Fc-IL2 and Fc-IL2v ([8]; 1 mg/kg SC on days 5-8): better tolerated | EC50 [9]: 0.64 nM | expansion of NK cells in vivo [10]: promoted the expansion

B1: IL-2gv1 (protein)
chain: APTSSSTKKTQLQLEHLLLDLQMILNGINNYKNPKLTNMTTFNFTMPKKATELKHLQCLEEELKPLEEVLNLAQSKNFHLRPRDLISNINVIVLELKGSETTFMCEYADETATIVEFLNRWITFCQSIISTLT
activity on Treg cells (concentration potency at inducing pSTAT5) compared to wild-type IL-2 [11]: reduced activity on Treg cells

B2: IL-2gv2 (protein)
chain: B1 chain with N38R, T40L, L72N, Q74T
activity on Treg cells (concentration potency at inducing pSTAT5) compared to wild-type IL-2 [11]: reduced activity on Treg cells

B3: Fc-IL2-T41N:K43T-E62N:K64T (Fc fusion)
chain: GGGGSGGGGSAPTSSSTKKTQLQLEHLLLDLQMILNGINNYKNPKLTRMLNFTFYMPKKATELKHLQCLEENLTPLEEVLNLAQSKNFHLRPRDLISNINVIVLELKGSETTFMCEYADETATIVEFLNRWITFCQSIISTLT
EC50 (read off the curve), pSTAT5 MFI in NK cells of hPBMC [12]: ~6 nM | EC50 (read off the curve), pSTAT5 MFI in Treg cells of hPBMC [13]: ~20 nM

B4: Fc-IL2-T41N:K43T-L72N:Q74T (Fc fusion)
chain: B3 chain with N72E, T74K, L82N, Q84T
EC50 (read off the curve), pSTAT5 MFI in NK cells of hPBMC [12]: ~6 nM | EC50 (read off the curve), pSTAT5 MFI in Treg cells of hPBMC [13]: ~20 nM
